From the NIST ThermoML archive (doi:10.1016/j.jct.2016.02.001)
± gives the expanded uncertainty stated by the source.

Test: mn = molality of the nth substance listed, in mol/kg
Details: for surface tension liquid-gas: Maximal bubble pressure; for mass density: 100 kPa, Liquid, Vibrating tube method

CC(=O)[O-].CCCCCCn1cc[n+](C)c1 [3-hexyl-1-methylimidazolium acetate] + O
Details | mass density [kg/m3] | surface tension liquid-gas [mN/m]
288.15 K, m1 = 0.0117 | 1000.09 ± 0.68 | 73 ± 0.6
288.15 K, m1 = 0.0162 | 1000.19 ± 0.68 | 72.9 ± 0.6
288.15 K, m1 = 0.0285 | 1000.4 ± 0.67 | 72.7 ± 0.7
288.15 K, m1 = 0.044 | 1000.58 ± 0.66 | 72.2 ± 0.7
288.15 K, m1 = 0.1102 | 1001.44 ± 0.67 | 70.4 ± 0.7
288.15 K, m1 = 0.1674 | 1002.13 ± 0.67 | 68.9 ± 0.6
288.15 K, m1 = 0.2233 | 1002.92 ± 0.67 | 67.6 ± 0.6
288.15 K, m1 = 0.2797 | 1003.61 ± 0.67 | 66.3 ± 0.6
288.15 K, m1 = 0.3357 | 1004.39 ± 0.67 | 65.1 ± 0.6
288.15 K, m1 = 0.3914 | 1005.11 ± 0.67 | 63.7 ± 0.6
288.15 K, m1 = 0.4475 | 1005.8 ± 0.67 | 62.4 ± 0.6
288.15 K, m1 = 0.5029 | 1006.52 ± 0.67 | 61.4 ± 0.6
293.15 K, m1 = 0.0117 | 999.03 ± 0.69 | 72.3 ± 0.7
293.15 K, m1 = 0.0162 | 999.15 ± 0.7 | 72.2 ± 0.7
293.15 K, m1 = 0.0285 | 999.32 ± 0.67 | 71.9 ± 0.7
293.15 K, m1 = 0.044 | 999.53 ± 0.66 | 71.3 ± 0.7
293.15 K, m1 = 0.1102 | 1000.29 ± 0.66 | 69.6 ± 0.7
293.15 K, m1 = 0.1674 | 1000.95 ± 0.67 | 68.2 ± 0.6
293.15 K, m1 = 0.2233 | 1001.64 ± 0.67 | 67 ± 0.6
293.15 K, m1 = 0.2797 | 1002.33 ± 0.67 | 65.6 ± 0.6
293.15 K, m1 = 0.3357 | 1003 ± 0.67 | 64.4 ± 0.6
293.15 K, m1 = 0.3914 | 1003.71 ± 0.67 | 63 ± 0.6
293.15 K, m1 = 0.4475 | 1004.46 ± 0.67 | 61.7 ± 0.6
293.15 K, m1 = 0.5029 | 1005.19 ± 0.67 | 60.7 ± 0.6
298.15 K, m1 = 0.0117 | 997.74 ± 0.68 | 71.6 ± 0.7
298.15 K, m1 = 0.0162 | 997.89 ± 0.69 | 71.4 ± 0.7
298.15 K, m1 = 0.0285 | 998.01 ± 0.67 | 71.1 ± 0.7
298.15 K, m1 = 0.044 | 998.25 ± 0.66 | 70.6 ± 0.7
298.15 K, m1 = 0.1102 | 998.91 ± 0.66 | 69 ± 0.6
298.15 K, m1 = 0.1674 | 999.59 ± 0.67 | 67.5 ± 0.6
298.15 K, m1 = 0.2233 | 1000.3 ± 0.67 | 66.2 ± 0.6
298.15 K, m1 = 0.2797 | 1001 ± 0.67 | 64.8 ± 0.6
298.15 K, m1 = 0.3357 | 1001.66 ± 0.67 | 63.7 ± 0.6
298.15 K, m1 = 0.3914 | 1002.34 ± 0.67 | 62.4 ± 0.6
298.15 K, m1 = 0.4475 | 1003.01 ± 0.67 | 61.1 ± 0.6
298.15 K, m1 = 0.5029 | 1003.64 ± 0.66 | 60.2 ± 0.6
303.15 K, m1 = 0.0117 | 996.24 ± 0.68 | 70.7 ± 0.7
303.15 K, m1 = 0.0162 | 996.35 ± 0.68 | 70.6 ± 0.7
303.15 K, m1 = 0.0285 | 996.49 ± 0.67 | 70.3 ± 0.7
303.15 K, m1 = 0.044 | 996.69 ± 0.66 | 69.7 ± 0.7
303.15 K, m1 = 0.1102 | 997.44 ± 0.66 | 68.1 ± 0.6
303.15 K, m1 = 0.1674 | 998.06 ± 0.67 | 66.8 ± 0.6
303.15 K, m1 = 0.2233 | 998.79 ± 0.67 | 65.6 ± 0.6
303.15 K, m1 = 0.2797 | 999.48 ± 0.67 | 64.1 ± 0.6
303.15 K, m1 = 0.3357 | 1000.14 ± 0.66 | 62.9 ± 0.6
303.15 K, m1 = 0.3914 | 1000.78 ± 0.66 | 61.7 ± 0.6
303.15 K, m1 = 0.4475 | 1001.42 ± 0.66 | 60.5 ± 0.6
303.15 K, m1 = 0.5029 | 1002.04 ± 0.66 | 59.6 ± 0.6
308.15 K, m1 = 0.0117 | 994.58 ± 0.68 | 69.8 ± 0.7
308.15 K, m1 = 0.0162 | 994.69 ± 0.68 | 69.7 ± 0.7
308.15 K, m1 = 0.0285 | 994.81 ± 0.66 | 69.4 ± 0.7
308.15 K, m1 = 0.044 | 994.99 ± 0.66 | 68.9 ± 0.7
308.15 K, m1 = 0.1102 | 995.81 ± 0.66 | 67.5 ± 0.6
308.15 K, m1 = 0.1674 | 996.43 ± 0.66 | 65.9 ± 0.6
308.15 K, m1 = 0.2233 | 997.08 ± 0.66 | 64.7 ± 0.6
308.15 K, m1 = 0.2797 | 997.72 ± 0.66 | 63.4 ± 0.6
308.15 K, m1 = 0.3357 | 998.39 ± 0.66 | 62.2 ± 0.6
308.15 K, m1 = 0.3914 | 999.02 ± 0.66 | 61.1 ± 0.6
308.15 K, m1 = 0.4475 | 999.65 ± 0.66 | 59.9 ± 0.6
308.15 K, m1 = 0.5029 | 1000.24 ± 0.66 | 58.9 ± 0.6
313.15 K, m1 = 0.0117 | 992.75 ± 0.67 | 69 ± 0.6
313.15 K, m1 = 0.0162 | 992.83 ± 0.67 | 68.9 ± 0.6
313.15 K, m1 = 0.0285 | 992.94 ± 0.66 | 68.7 ± 0.6
313.15 K, m1 = 0.044 | 993.11 ± 0.66 | 68.2 ± 0.7
313.15 K, m1 = 0.1102 | 993.86 ± 0.67 | 66.6 ± 0.6
313.15 K, m1 = 0.1674 | 994.56 ± 0.67 | 65.3 ± 0.6
313.15 K, m1 = 0.2233 | 995.21 ± 0.66 | 64.1 ± 0.6
313.15 K, m1 = 0.2797 | 995.84 ± 0.66 | 62.8 ± 0.6
313.15 K, m1 = 0.3357 | 996.49 ± 0.66 | 61.7 ± 0.6
313.15 K, m1 = 0.3914 | 997.12 ± 0.66 | 60.5 ± 0.6
313.15 K, m1 = 0.4475 | 997.73 ± 0.66 | 59.2 ± 0.6
313.15 K, m1 = 0.5029 | 998.32 ± 0.66 | 58.2 ± 0.6
318.15 K, m1 = 0.0117 | 990.75 ± 0.67 | 68.2 ± 0.6
318.15 K, m1 = 0.0162 | 990.81 ± 0.66 | 68.1 ± 0.6
318.15 K, m1 = 0.0285 | 990.95 ± 0.66 | 67.9 ± 0.6
318.15 K, m1 = 0.044 | 991.1 ± 0.66 | 67.4 ± 0.7
318.15 K, m1 = 0.1102 | 991.84 ± 0.66 | 65.8 ± 0.6
318.15 K, m1 = 0.1674 | 992.43 ± 0.66 | 64.4 ± 0.6
318.15 K, m1 = 0.2233 | 993.11 ± 0.67 | 63.3 ± 0.6
318.15 K, m1 = 0.2797 | 993.76 ± 0.66 | 62.1 ± 0.6
318.15 K, m1 = 0.3357 | 994.39 ± 0.66 | 61 ± 0.6
318.15 K, m1 = 0.3914 | 995 ± 0.66 | 59.7 ± 0.6
318.15 K, m1 = 0.4475 | 995.59 ± 0.66 | 58.5 ± 0.6
318.15 K, m1 = 0.5029 | 996.16 ± 0.66 | 57.7 ± 0.6
